Where “and” joins values, the source holds several entries; their conditions need not be identical. Identical values can stand only once. Inconclusive results and toxic doses are left out.
Tested on: AK4 lymphoid leukemia ip, C3AKF1 mice, survival
Assay: NCI In Vivo Anticancer Drug Screen. Data for tumor model AK4 Lymphoid Leukemia (intraperitoneal) in C3AKF1 (CHKRF1) mice
Details: endpoint: median survival time, higher = longer survival
Protocol: The antitumor activity of compounds was measured in mice bearing transplantable tumors. Survival or tumor size were measured and the results are expressed as the measurement made in the treated group (T) divided by the measurement made in the vehicle treated control group (C). The tumor model used in this assay is AK4 Lymphoid Leukemia (intraperitoneal) in C3AKF1 (CHKRF1) mice

[1] = dose: 32.0 mg/kg/injection, schedule: Q01DX010 (ip), vehicle: saline
[2] = dose: 64.0 mg/kg/injection, schedule: Q01DX010 (ip), vehicle: saline
[3] = dose: 125.0 mg/kg/injection, schedule: Q01DX010 (ip), vehicle: saline
[4] = dose: 250.0 mg/kg/injection, schedule: Q01DX010 (ip), vehicle: saline
[5] = dose: 5.0 mg/kg/injection, schedule: Q01DX010 (ip), vehicle: saline
[6] = dose: 10.0 mg/kg/injection, schedule: Q01DX010 (ip), vehicle: saline
[7] = dose: 20.0 mg/kg/injection, schedule: Q01DX010 (ip), vehicle: saline
[8] = dose: 1.25 mg/kg/injection, schedule: Q01DX010 (ip), vehicle: saline
[9] = dose: 2.5 mg/kg/injection, schedule: Q01DX010 (ip), vehicle: saline
[10] = dose: 12.5 mg/kg/injection, schedule: Q01DX010 (ip), vehicle: saline
[11] = dose: 25.0 mg/kg/injection, schedule: Q01DX010 (ip), vehicle: saline
[12] = dose: 100.0 mg/kg/injection, schedule: Q01DX010 (ip), vehicle: saline
[13] = dose: 200.0 mg/kg/injection, schedule: Q01DX010 (ip), vehicle: saline
[14] = dose: 3.13 mg/kg/injection, schedule: Q01DX010 (ip), vehicle: saline
[15] = dose: 6.25 mg/kg/injection, schedule: Q01DX010 (ip), vehicle: saline
[16] = dose: 50.0 mg/kg/injection, schedule: Q01DX010 (ip), vehicle: saline
[17] = dose: 8.0 mg/kg/injection, schedule: Q01DX010 (ip), vehicle: saline
[18] = dose: 16.0 mg/kg/injection, schedule: Q01DX010 (ip), vehicle: saline

SMILES: O=c1cn[nH]c(=O)[nH]1
- T/C (dose: 32.0 mg/kg/injection, schedule: Q01DX006 (iv), vehicle: saline): 88 % of control
- T/C [1]: 88 % of control
- T/C (dose: 32.0 mg/kg/injection, schedule: Q01DX010 (sc), vehicle: saline): 88 % of control
- T/C (dose: 32.0 mg/kg/injection, schedule: Q02DX005 (im), vehicle: saline): 94 % of control
- T/C (dose: 64.0 mg/kg/injection, schedule: Q01DX006 (iv), vehicle: saline): 100 % of control
- T/C [2]: 88 % of control
- T/C (dose: 64.0 mg/kg/injection, schedule: Q01DX010 (sc), vehicle: saline): 88 % of control
- T/C (dose: 64.0 mg/kg/injection, schedule: Q02DX005 (im), vehicle: saline): 105 % of control
- T/C (dose: 100.0 mg/kg/injection, schedule: Q03DX Z (ip), vehicle: saline): 88 % of control
- T/C (dose: 125.0 mg/kg/injection, schedule: Q01DX001 (ip), vehicle: saline): 88 % of control and 94 % of control
- T/C (dose: 125.0 mg/kg/injection, schedule: Q01DX010 (oral), vehicle: saline): 100 % of control
- T/C (dose: 125.0 mg/kg/injection, schedule: Q07DX Z (ip), vehicle: saline): 111 % of control
- T/C (dose: 128.0 mg/kg/injection, schedule: Q01DX006 (iv), vehicle: saline): 88 % of control
- T/C (dose: 128.0 mg/kg/injection, schedule: Q01DX010 (ip), vehicle: saline): 88 % of control
- T/C (dose: 128.0 mg/kg/injection, schedule: Q01DX010 (sc), vehicle: saline): 88 % of control
- T/C (dose: 128.0 mg/kg/injection, schedule: Q02DX005 (im), vehicle: saline): 122 % of control
- T/C (dose: 200.0 mg/kg/injection, schedule: Q03DX Z (ip), vehicle: saline): 100 % of control
- T/C (dose: 250.0 mg/kg/injection, schedule: Q01DX001 (ip), vehicle: saline): 94 % of control and 100 % of control
- T/C (dose: 250.0 mg/kg/injection, schedule: Q01DX010 (oral), vehicle: saline): 94 % of control
- T/C (dose: 250.0 mg/kg/injection, schedule: Q07DX Z (ip), vehicle: saline): 88 % of control
- T/C (dose: 256.0 mg/kg/injection, schedule: Q01DX006 (iv), vehicle: saline): 105 % of control
- T/C (dose: 256.0 mg/kg/injection, schedule: Q01DX010 (ip), vehicle: saline): 100 % of control
- T/C (dose: 256.0 mg/kg/injection, schedule: Q01DX010 (sc), vehicle: saline): 105 % of control
- T/C (dose: 256.0 mg/kg/injection, schedule: Q02DX005 (im), vehicle: saline): 88 % of control
- T/C (dose: 400.0 mg/kg/injection, schedule: Q03DX Z (ip), vehicle: saline): 94 % of control
- T/C (dose: 500.0 mg/kg/injection, schedule: Q01DX001 (ip), vehicle: saline): 94 % of control and 105 % of control
- T/C (dose: 500.0 mg/kg/injection, schedule: Q01DX010 (oral), vehicle: saline): 111 % of control
- T/C (dose: 500.0 mg/kg/injection, schedule: Q07DX Z (ip), vehicle: saline): 88 % of control
- T/C (dose: 800.0 mg/kg/injection, schedule: Q03DX Z (ip), vehicle: saline): 94 % of control
- T/C (dose: 1000.0 mg/kg/injection, schedule: Q01DX001 (ip), vehicle: saline): 100 % of control and 105 % of control
- T/C (dose: 1000.0 mg/kg/injection, schedule: Q01DX010 (oral), vehicle: saline): 94 % of control
- T/C (dose: 1000.0 mg/kg/injection, schedule: Q07DX Z (ip), vehicle: saline): 100 % of control

SMILES: O=C(Nc1ccc(C2=NCCN2)cc1)c1ccc(C(=O)Nc2ccc(C3=NCCN3)cc2)c([N+](=O)[O-])c1
- T/C (dose: 6.0 mg/kg/injection, schedule: Q01DX010 (ip), vehicle: saline): 150 % of control
- T/C (dose: 12.0 mg/kg/injection, schedule: Q01DX010 (ip), vehicle: saline): 155 % of control and 210 % of control
- T/C (dose: 18.0 mg/kg/injection, schedule: Q01DX010 (ip), vehicle: saline): 100 % of control and 240 % of control

SMILES: CCOC(N)=O
- T/C [3]: 100 % of control and 121 % of control
- T/C [4]: 100 % of control and 106 % of control
- T/C (dose: 1000.0 mg/kg/injection, schedule: Q01DX010 (ip), vehicle: saline): 87 % of control

SMILES: C[C@@H]1C[C@@H]([C@H](O)CC2CC(=O)NC(=O)C2)C(=O)[C@@H](C)C1
- T/C [5]: 100 % of control and 107 % of control
- T/C [6]: 87 % of control and 121 % of control
- T/C [7]: 93 % of control and 114 % of control

SMILES: CC[n+]1c(-c2ccccc2)c2cc(N)ccc2c2ccc(N)cc21
- T/C [8]: 100 % of control
- T/C [9]: 100 % of control
- T/C [5]: 100 % of control
- T/C [6]: 100 % of control and 112 % of control
- T/C [7]: 112 % of control

SMILES: COc1cc(-c2ccc(Nc3ccccc3C(=O)O)c(OC)c2)ccc1Nc1ccccc1C(=O)O
- T/C [10]: 112 % of control
- T/C [11]: 112 % of control and 122 % of control
- T/C [12]: 162 % of control

SMILES: N#[N+]c1cnc([O-])[nH]c1=O
- T/C [8]: 100 % of control
- T/C [9]: 100 % of control
- T/C [5]: 100 % of control
- T/C [6]: 100 % of control

SMILES: CCN(CCNc1ccc(C)c2sc3cc(Cl)ccc3c(=O)c12)CC(C)O (stereo unspecified)
- T/C (dose: 31.3 mg/kg/injection, schedule: Q01DX010 (ip), vehicle: saline): 94 % of control
- T/C (dose: 62.5 mg/kg/injection, schedule: Q01DX010 (ip), vehicle: saline): 88 % of control and 94 % of control
- T/C [3]: 94 % of control
- T/C [4]: 88 % of control

SMILES: CN(C)/N=N/c1nc[nH]c1C(N)=O
- T/C [12]: 155 % of control and 166 % of control
- T/C [13]: 177 % of control and 205 % of control

SMILES: CSCS(=O)C[C@H](CO)NC(=O)/C=C/c1c(C)[nH]c(=O)[nH]c1=O (stereo partly specified)
- T/C (dose: 125.0 micrograms/kg/injection, schedule: Q01DX010 (ip), vehicle: saline): 93 % of control
- T/C (dose: 250.0 micrograms/kg/injection, schedule: Q01DX010 (ip), vehicle: saline): 87 % of control
- T/C (dose: 500.0 micrograms/kg/injection, schedule: Q01DX010 (ip), vehicle: saline): 87 % of control

SMILES: O=C(O)c1[nH]c(=O)[nH]c(=O)c1F
- T/C [8]: 105 % of control
- T/C [9]: 122 % of control
- T/C [6]: 155 % of control and 205 % of control
- T/C [7]: 111 % of control

SMILES: Cc1cc2nc3c(=O)[nH]c(=O)nc-3n(CC(O)C(O)C(O)C(O)CO)c2cc1C (stereo unspecified)
- T/C [14]: 105 % of control
- T/C [15]: 111 % of control
- T/C [10]: 105 % of control
- T/C [11]: 100 % of control and 105 % of control
- T/C [13]: 88 % of control

SMILES: CC1CCOS(=O)O1 (stereo unspecified)
- T/C [6]: 100 % of control
- T/C [7]: 88 % of control and 100 % of control
- T/C (dose: 40.0 mg/kg/injection, schedule: Q01DX010 (ip), vehicle: saline): 90 % of control and 100 % of control
- T/C (dose: 80.0 mg/kg/injection, schedule: Q01DX010 (ip), vehicle: saline): 88 % of control

SMILES: Nc1nc2n[nH]nc2c(=O)[nH]1
- T/C (dose: 25.0 mg/kg/injection, schedule: Q01DX010 (ip), vehicle: alkali diluted with saline): 100 % of control and 115 % of control
- T/C (dose: 50.0 mg/kg/injection, schedule: Q01DX010 (ip), vehicle: alkali diluted with saline): 105 % of control and 120 % of control
- T/C (dose: 100.0 mg/kg/injection, schedule: Q01DX010 (ip), vehicle: alkali diluted with saline): 100 % of control and 110 % of control
- T/C (dose: 200.0 mg/kg/injection, schedule: Q01DX010 (ip), vehicle: alkali diluted with saline): 100 % of control and 110 % of control

SMILES: O=[n+]1c2c(n([O-])c3ccccc31)-c1cccc3cccc-2c13
- T/C [14]: 100 % of control
- T/C [15]: 100 % of control
- T/C [10]: 100 % of control
- T/C [11]: 88 % of control and 94 % of control
- T/C [16]: 88 % of control
- T/C [12]: 88 % of control

SMILES: N=[N+]=CC(=O)OCC(N)C(=O)O (stereo unspecified)
- T/C [14]: 122 % of control
- T/C [10]: 113 % of control
- T/C [11]: 100 % of control and 86 % of control

SMILES: C[C@H]1C(=O)O[C@@H]2CCN3CC=C(COC(=O)[C@](C)(O)[C@@]1(C)O)[C@H]23
- T/C [14]: 111 % of control
- T/C [15]: 100 % of control
- T/C [10]: 117 % of control

SMILES: C#CCN(C)Cc1ccccc1
- T/C [16]: 88 % of control
- T/C [12]: 88 % of control
- T/C [13]: 88 % of control

SMILES: O=C(Nc1ccc(C2=NCCN2)cc1)c1cccc(C(=O)Nc2ccc(C3=NCCN3)cc2)c1
- T/C [17]: 115 % of control
- T/C [18]: 150 % of control and 165 % of control
- T/C [1]: 205 % of control and 210 % of control
- T/C [2]: 235 % of control and 245 % of control

SMILES: OC(CBr)C(O)C(O)C(O)CBr (stereo unspecified)
- T/C [16]: 100 % of control and 87 % of control
- T/C [12]: 93 % of control and 87 % of control
- T/C [13]: 93 % of control and 100 % of control
- T/C (dose: 400.0 mg/kg/injection, schedule: Q01DX010 (ip), vehicle: saline): 100 % of control

SMILES: O=C(Nc1ccc(NC2=NCCN2)cc1)c1ccc(C(=O)Nc2ccc(NC3=NCCN3)cc2)cc1
- T/C (dose: 2.0 mg/kg/injection, schedule: Q01DX010 (ip), vehicle: saline): 95 % of control and 105 % of control
- T/C (dose: 4.0 mg/kg/injection, schedule: Q01DX010 (ip), vehicle: saline): 90 % of control and 110 % of control
- T/C [17]: 110 % of control
- T/C [18]: 150 % of control

From PubChem BioAssay AID236 (DTP/NCI, 2004)
